Assay results published in PMC2862727 (Molecular immunology, 2010).
“Also recorded” adds a separate entry of the source.

How the values were obtained:
[1] = test system: secreted IL-1β from THP-1 cells; experiment: ELISA of IL-1β secreted into media of THP-1 cells; type: cell-based, human; conditions: for secreted IL-1β in media: 2 h
[2] = test system: IL-1β production in primary human monocytes; experiment: IL-1β immunoblot of primary human monocyte lysates; type: cell-based; conditions: individual treatment (30 ng/mL LPS or 0.1 μM Iso alone), n = 3
[3] = test system: inflammatory mediators secreted by THP-1 cells; experiment: Cytokine antibody array of conditioned media from THP-1 cells; type: cell-based, human; conditions: 2 h, n = 3
[4] = test system: IL-1β production in THP-1 cells; experiment: IL-1β immunoblot of THP-1 cell lysates; conditions: for effect of inhibitor or antagonist alone on IL-1β generation: absence of receptor agonist, data not shown
[5] = test system: β-AR binding sites on THP-1 cell membranes; experiment: Saturation radioligand binding of 125I-CYP on crude THP-1 cell membranes; parameters: species or system human; conditions: THP-1 membranes, n = 6
[6] = molecular target: β-AR mediating cAMP production in THP-1 cells (Homo sapiens, UniProt P08588); experiment: Iso-induced cAMP production in THP-1 cells, Schild regression analysis; type: cell-based; conditions: inhibition of Iso mediated cAMP production in THP-1 cells, n = 4
[7] = test system: specific ^125I-CYP binding sites on THP-1 membranes; conditions: one-site binding model, ref Talmadge, et al., 1993; cited from earlier work
[8] = individual treatment (30 ng/mL LPS or 0.1 μM Iso alone), n = 6, control 1.6 ± 0.5 pg/mL
[9] = 30 ng/mL LPS and 0.1 μM Iso simultaneously

Sequence of β-AR mediating cAMP production in THP-1 cells (P08588 whole entry): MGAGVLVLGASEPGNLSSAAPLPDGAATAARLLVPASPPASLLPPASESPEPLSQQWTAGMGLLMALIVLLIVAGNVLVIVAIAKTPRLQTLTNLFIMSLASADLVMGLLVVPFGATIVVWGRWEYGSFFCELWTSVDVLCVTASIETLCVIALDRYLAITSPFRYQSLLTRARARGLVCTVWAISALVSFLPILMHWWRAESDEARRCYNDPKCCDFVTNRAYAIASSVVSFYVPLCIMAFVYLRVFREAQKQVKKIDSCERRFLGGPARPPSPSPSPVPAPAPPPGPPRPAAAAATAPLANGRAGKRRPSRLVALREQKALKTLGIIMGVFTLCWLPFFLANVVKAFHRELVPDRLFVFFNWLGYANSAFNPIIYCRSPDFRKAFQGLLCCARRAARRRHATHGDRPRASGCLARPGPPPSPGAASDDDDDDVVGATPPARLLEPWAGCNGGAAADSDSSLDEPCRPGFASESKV

lipopolysaccharide [LPS]
secreted IL-1β in media [1, 8]: 16.9 ± 2.6 pg/mL
IL-1β produced, fold over basal [2]: 3.4 ± 1.8 fold
expression of secreted IL-1β and TNF-α versus control ([3]; 30 ng/mL LPS only): qualitative increase
IL-1β produced, fold over basal ([4]; THP-1 lysates, individual treatment (30 ng/mL LPS or 0.1 μM Iso alone), 2 hr, n = 5): 12.1 ± 3.9 fold

CC(C)(C)NCC(O)COc1cccc2[nH]c(C#N)c(I)c12 (single isomer, unassigned; (-)) [^125I-CYP, (–)3-[^125I]iodocyanopindolol]
Kd ([5]; read-out: equilibrium dissociation constant (Kd) of 125I-CYP, saturation binding): 0.0301 ± 0.0051 nM

Cc1ccc(OCC(O)C(C)NC(C)C)c2c1CCC2 (racemic) [ICI 118,551, erythro-dl-1-(7-methylindan-4-yloxy)-3-isopropylaminobutan-2-ol]
Schild regression slope [6]: 1.0 ± 0.1
Ki [7]: 46 nM
effect of inhibitor or antagonist alone on IL-1β generation ([4]; THP-1 cells): no qualitative changes

CC(C)NCC(O)c1ccc(O)c(O)c1 (stereo not shown) [Iso, isoproterenol]
difference in IL-1β released into media between LPS alone and LPS plus Iso [1]: > 4 fold
secreted IL-1β in media ([1]; 0.1 μM Iso plus 30 ng/mL LPS, n = 6): 76.3 ± 24.7 pg/mL
secreted IL-1β in media [1, 8]: 4.8 ± 1.4 pg/mL
LPS mediated TNF-α expression versus LPS alone [3, 9]: qualitative loss; also recorded: decreases
soluble IL-1β versus LPS stimulation alone [3, 9]: qualitative increase
expression pattern of inflammatory mediators versus basal ([3]; 0.1 μM Iso only): no differences in the expression pattern
synergistic modulation of LPS mediated production of IL-1β ([4]; THP-1 cells, LPS plus Iso versus LPS alone): > 4 fold

CC(C)(C)NCC(O)COc1cccc2[nH]c(C#N)c([125I])c12 (single isomer, unassigned; (-)) [^125I-CYP, (–)3-[^125I]iodocyanopindolol]
number of binding sites (Bmax) ([5]; labeled by 125I-CYP): 341 ± 77 fmol/mg protein

Cl.Cl.O=S(=O)(NCCNCC=Cc1ccc(Br)cc1)c1cccc2cnccc12 [H-89, N-[2-(p-bromocinnamylamino)ethyl]-5-isoquinolinesulfonamide dihydrochloride]
effect of inhibitor or antagonist alone on IL-1β generation ([4]; THP-1 cells): did not alter responses
IL-1β produced, fold over LPS ([4]; THP-1 lysates, 100 nM H-89 pre-incubation then 30 ng/mL LPS plus 0.1 μM Iso (Fig 7), n = 6): 1.4±0.1 fold over LPS

Cn1cc(C(F)(F)F)nc1-c1ccc(OCC(O)CNCCOc2ccc(O)c(C(N)=O)c2)cc1 (stereo not shown) [CGP 20712A, 1-(2-((3-carbamoyl-4-hydroxy)phenoxy)ethylamino)-3-(4-(1-methyl-4-trifluoromethyl-2-imidazoylyl)phenoxy)-2-propanol methanesulfonate]
effect of inhibitor or antagonist alone on IL-1β generation ([4]; THP-1 cells): no qualitative changes
